Measured values: patent US10660872B2, “Methods for treatment of cognitive decline” (Ramot at Tel-Aviv University Ltd., priority 2014, dated 2020)

Columns and labels:
ICR mice [1] = assay: open field test (immobility); details: single intraperitoneal dose, five minutes in arena
ICR mice [2] = assay: hot plate test (analgesia); details: single intraperitoneal dose, from 15 minutes after injection, hotplate 45° C.
aged ICR mice = assay: oasis maze test (spatial learning); details: 0.002 mg/kg THC, three times a week for three weeks
ICR mice [3] = assay: body temperature using a rectal thermometer; details: single intraperitoneal dose
aged mice = assay: Object Recognition Test (visual memory) in aged mice; details: 0.002 mg/kg THC intraperitoneal, 3 times a week for three weeks
[4] = conventional dose 1, 2 or 10 mg/kg
[5] = low dose 0.001, 0.002 or 0.01 mg/kg

## CCCCCc1cc(O)c2c(c1)OC(C)(C)[C@@H]1CCC(C)=C[C@@H]21 [THC, (−)-trans-Δ^9-tetrahydrocannabinol]
ICR mice [1]; [4]
  immobility (slowing of motor activity): induced conventional acute cannabinoid effects
ICR mice [1]; [5]
  immobility (slowing of motor activity): failed to induce any of these effects
ICR mice [2]; [4]
  analgesia (latency to respond to noxious stimulus): induced conventional acute cannabinoid effects
ICR mice [2]; [5]
  analgesia (latency to respond to noxious stimulus): failed to induce any of these effects
Aged ICR mice
  time to finding the filled well in test trials: find the filled well in significantly less time than aged mice treated with vehicle alone
ICR mice [3]; [4]
  hypothermia (reduced body temperature): induced conventional acute cannabinoid effects
ICR mice [3]; [5]
  hypothermia (reduced body temperature): failed to induce any of these effects
Aged mice
  adverse acute effects upon administration: No adverse acute effects were recognized
